Experiments:
[1] = target: T1, 3',5'-cyclic-AMP phosphodiesterase 4B (Homo sapiens, UniProt Q07343); assay: Inhibition of human PDE4B
[2] = target: T2, 3',5'-cyclic-AMP phosphodiesterase 4D (Homo sapiens, UniProt Q08499); assay: Inhibition of human PDE4D
Homo sapiens = species: Homo sapiens; assay: Selectivity index, ratio of IC50 for human PDE4D to IC50 for human PDE4B
[3] = target: T1, 3',5'-cyclic-AMP phosphodiesterase 4B; assay: Inhibition of human PDE4B1
[4] = target: T2, 3',5'-cyclic-AMP phosphodiesterase 4D; assay: Inhibition of human PDE4D7

T2 sequence (Q08499 whole entry): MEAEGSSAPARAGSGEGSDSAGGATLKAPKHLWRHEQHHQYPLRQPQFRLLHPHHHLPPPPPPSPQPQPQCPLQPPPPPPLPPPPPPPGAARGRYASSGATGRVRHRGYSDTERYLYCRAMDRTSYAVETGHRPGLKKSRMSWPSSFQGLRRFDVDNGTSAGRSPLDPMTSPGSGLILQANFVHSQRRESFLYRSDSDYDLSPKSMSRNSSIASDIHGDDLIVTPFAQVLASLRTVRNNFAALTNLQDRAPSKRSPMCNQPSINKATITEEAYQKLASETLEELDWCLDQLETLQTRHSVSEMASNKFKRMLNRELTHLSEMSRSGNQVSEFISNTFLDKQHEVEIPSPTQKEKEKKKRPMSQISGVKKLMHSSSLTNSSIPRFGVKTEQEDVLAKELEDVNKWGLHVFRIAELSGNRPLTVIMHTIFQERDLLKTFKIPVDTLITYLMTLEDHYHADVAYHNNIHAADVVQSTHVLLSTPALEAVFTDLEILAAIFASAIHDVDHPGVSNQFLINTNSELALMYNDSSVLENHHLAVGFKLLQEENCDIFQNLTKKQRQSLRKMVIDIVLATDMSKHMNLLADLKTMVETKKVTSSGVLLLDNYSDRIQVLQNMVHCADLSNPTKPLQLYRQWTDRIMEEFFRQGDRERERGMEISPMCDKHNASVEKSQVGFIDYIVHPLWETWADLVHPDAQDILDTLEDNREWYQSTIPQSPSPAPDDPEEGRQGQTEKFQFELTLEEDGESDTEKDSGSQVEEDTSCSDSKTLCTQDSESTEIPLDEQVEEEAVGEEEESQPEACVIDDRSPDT
T1 sequence (Q07343 whole entry): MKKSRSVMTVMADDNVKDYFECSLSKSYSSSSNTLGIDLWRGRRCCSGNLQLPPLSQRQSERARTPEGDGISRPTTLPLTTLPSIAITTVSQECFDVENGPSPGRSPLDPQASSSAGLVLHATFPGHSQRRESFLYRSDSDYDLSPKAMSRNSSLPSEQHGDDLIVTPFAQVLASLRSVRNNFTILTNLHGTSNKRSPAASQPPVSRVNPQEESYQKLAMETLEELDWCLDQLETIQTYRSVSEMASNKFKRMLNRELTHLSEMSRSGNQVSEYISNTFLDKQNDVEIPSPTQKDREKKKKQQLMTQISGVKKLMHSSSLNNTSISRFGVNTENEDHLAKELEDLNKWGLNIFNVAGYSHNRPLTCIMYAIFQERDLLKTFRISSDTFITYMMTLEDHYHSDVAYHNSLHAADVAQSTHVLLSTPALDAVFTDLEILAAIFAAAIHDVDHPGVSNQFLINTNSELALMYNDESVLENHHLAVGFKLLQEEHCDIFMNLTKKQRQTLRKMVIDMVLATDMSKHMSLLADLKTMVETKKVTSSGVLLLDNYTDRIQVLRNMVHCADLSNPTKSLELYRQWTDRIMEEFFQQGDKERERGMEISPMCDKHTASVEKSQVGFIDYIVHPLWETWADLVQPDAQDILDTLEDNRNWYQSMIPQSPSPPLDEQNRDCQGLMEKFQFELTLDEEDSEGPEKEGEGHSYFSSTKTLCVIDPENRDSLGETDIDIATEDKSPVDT

IC50 ([1]; read-out: IC50) | IC50 ([2]; read-out: IC50) | Ratio IC50 (Homo sapiens) | IC50 [3] | IC50 [4] | IC50 [1] | IC50 [2] | SMILES
1.29 µM |  |  |  |  |  |  | Cc1nc(Nc2ccc(CC(=O)O)cc2)nc(-c2ccc(Cl)s2)n1
 |  |  | 6.7 µM | 2.3 µM |  |  | CCOc1nc(Nc2ccc(OC)cc2)nc(OCC)n1
1.44 µM | 2.11 µM | 1.5 |  |  |  |  | O=C(O)Cc1ccc(Nc2nc(-c3cccc(F)c3)nc(C3CC3)n2)cc1
1.46 µM | 0.727 µM | 0.5 |  |  |  |  | CCc1nc(Nc2ccc(CC(=O)O)cc2)nc(-c2ccc(F)cc2)n1
1.94 µM | 3.58 µM | 1.8 |  |  |  |  | CC(C)c1nc(Nc2ccc(CC(=O)O)cc2)nc(-c2ccc(Cl)s2)n1
0.135 µM | 0.268 µM | 2 |  |  |  |  | O=C1CCC(NC2=NC(C3CC3)NC(c3cccc(Cl)c3)=N2)CN1 (stereo not given)
0.845 µM | 0.726 µM | 0.86 |  |  |  |  | O=C(O)Cc1ccc(CNc2nc(-c3cccc(Cl)c3)nc(C3CC3)n2)cc1
18.8 µM | 22.3 µM | 1.2 |  |  |  |  | Cc1nc(Nc2ccc(CC(=O)O)cc2)nc(-c2ccco2)n1
 |  | 1 |  |  |  |  | CCc1nc(Nc2ccc(-c3nnn[nH]3)cc2)nc(-c2cccc(Cl)c2)n1
3.77 µM | 5.61 µM | 1.5 |  |  |  |  | O=C(O)Cc1ccc(Nc2nc(-c3ccc(Cl)cc3)nc(C3CC3)n2)cc1
0.402 µM | 0.16 µM | 0.4 |  |  |  |  | CCc1nc(Nc2ccc(NS(N)(=O)=O)cc2)nc(-c2cccc(Cl)c2)n1
0.22 µM | 0.219 µM | 1 |  |  |  |  | CC(C)c1nc(Nc2ccc(C(=O)O)cc2)nc(-c2ccc(Cl)s2)n1
0.046 µM | 0.02 µM | 0.4 |  |  |  |  | O=C(O)c1ccc(Nc2nc(-c3cccc(Cl)c3)nc(C3CC3)n2)cc1

Further lines, the compound ahead of its results:

SMILES | IC50 ([1]; read-out: IC50) | IC50 ([2]; read-out: IC50) | Ratio IC50 (Homo sapiens) | IC50 [3] | IC50 [4] | IC50 [1] | IC50 [2]
Cc1nc(Nc2ccc(C(=O)O)cc2)nc(-c2ccc(Cl)s2)n1 | 4.05 µM |  |  |  |  |  | 
CCc1nc(Nc2ccc(C#N)cc2)nc(-c2cccc(Cl)c2)n1 | 0.012 µM | 0.013 µM | 1.1 |  |  |  | 
O=C(O)Cc1ccc(Nc2nc(-c3cccc(Cl)c3)nc(C3CC3)n2)cc1 | 0.237 µM | 1.18 µM | 5 |  |  |  | 
O=C(O)Cc1ccc(Nc2nc(-c3ccc(Cl)s3)nc(C3CC3)n2)cc1 | 0.251 µM | 1.49 µM | 5.9 |  |  |  | 
CCc1nc(Nc2ccc(C(C)C(=O)O)cc2)nc(-c2cccc(Cl)c2)n1 (stereo not given) | 1.09 µM | 0.096 µM | 0.09 |  |  |  | 
CCc1nc(Nc2ccc(CC(=O)O)cc2)nc(-c2ccc(Cl)s2)n1 | 0.383 µM | 0.865 µM | 2.3 |  |  |  | 
CCc1nc(Nc2ccc(C(=O)O)cc2)nc(-c2cccc(Cl)c2)n1 | 0.241 µM | 0.213 µM | 0.9 |  |  |  | 
CCc1nc(Nc2ccc(-c3nn[nH]n3)cc2)nc(-c2cccc(Cl)c2)n1 | 0.126 µM | 0.132 µM |  |  |  |  | 
CCCc1nc(Nc2ccc(CC(=O)O)cc2)nc(-c2ccc(Cl)s2)n1 | 2.45 µM |  |  |  |  |  | 
O=C(O)c1ccc(Nc2nc(-c3ccc(Cl)cc3)nc(C3CC3)n2)cc1 | 0.135 µM | 0.268 µM | 2 |  |  |  | 
CCc1nc(Nc2ccc(CC(=O)O)cc2)nc(-c2ccoc2)n1 | 2.78 µM |  |  |  |  |  | 
CCc1nc(Nc2ccc(C(C)(C)C(=O)O)cc2)nc(-c2cccc(Cl)c2)n1 | 1.57 µM | 0.6 µM | 0.4 |  |  |  | 
O=C1NCCN1c1ccc(Nc2nc(-c3cccc(Cl)c3)nc(C3CC3)n2)cc1 |  |  |  |  |  | Not Active | Not Active
CCc1nc(Nc2ccc(CC#N)cc2)nc(-c2cccc(Cl)c2)n1 | 0.165 µM | 0.007 µM | 0.04 |  |  |  | 
CCc1c(C)nc(-c2ccc(Cl)s2)nc1Nc1ccc(CC(=O)O)cc1 |  |  |  | 0.055 µM | 2 µM |  | 
CCc1nc(Nc2ccc(C(=O)O)cc2)nc(-c2ccc(Cl)s2)n1 | 0.261 µM | 0.251 µM | 1 |  |  |  | 
CCc1nc(Nc2ccc(F)cc2)nc(-c2ccc(Cl)s2)n1 | 1.39 µM | 0.207 µM | 0.15 |  |  |  | 
O=C(O)Cc1ccc(Oc2nc(-c3cccc(Cl)c3)nc(C3CC3)n2)cc1 | 1.86 µM | 2.27 µM | 1.2 |  |  |  | 
CCc1nc(Nc2ccc(CC(=O)O)cc2)nc(-c2cccc(Cl)c2)n1 | 0.781 µM | 0.681 µM | 0.9 |  |  |  | 
CCc1nc(Nc2ccc(Cc3nnn[nH]3)cc2)nc(-c2cccc(Cl)c2)n1 | 0.069 µM | 0.063 µM | 0.9 |  |  |  | 
O=C(O)Cc1ccc(CNc2nc(-c3ccc(Cl)cc3)nc(C3CC3)n2)cc1 | 2.28 µM | 0.859 µM | 0.38 |  |  |  | 
CC(C)c1nc(Nc2ccc(F)cc2)nc(-c2ccc(Cl)s2)n1 | 8.81 µM | 0.886 µM |  |  |  |  | 

Source: ChEMBL document CHEMBL3351246, “Discovery of triazines as selective PDE4B versus PDE4D inhibitors” (Bioorg Med Chem Lett, 2014)
